Results reported in patent US7238813B2, “Chemical compounds” (Smithkline Beecham Corporation, priority 2000, dated 2007).

target: T1, GST-TIE2 (intracellular domains of human TIE2) (Homo sapiens, UniProt Q02763); assay: TIE-2 enzyme assay (TIE2-E), LANCE method; type: biochemical; conditions: 80 uM ATP
T1 construct: made in house
Protocol: TIE-2Enzyme Assay (TIE2-E)
The TIE-2 enzyme assay used the LANCE method (Wallac) and GST-TIE2, baculovirus expressed recombinant constructs of the intracellular domains of human TIE2 (amino acids 762–1104, GenBank Accession # L06139) tagged by GST). […] This peptide phosphorylation was detected using the following procedure: for enzyme preactivation, GST-TIE2 was incubated for 30 mins at room temperature with 2 mM ATP, 5 mM MgCl2 and 12.5 mM DTT in 22.5 mM HEPES buffer (pH7.4). Preactivated GST-TIE2 was incubated for 30 mins at room temperature in 96 well plates with 1 μM D1-15 peptide, 80 uM ATP, 10 mM MgCl2, 0.1 mg/ml BSA and the test compound (diluted from a 10 mM stock in DMSO, final DMSO concentration was 2.4%) in 1 mM HEPES (pH7.4). The reaction was stopped by the addition of EDTA (final concentration 45 mM). Streptavidin linked-APC (allophycocyanin, Molecular Probe) and Europium-labeled anti-phosphorylated tyrosine antibody (Wallac) were then added at the final concentration of 17 μg/well and 2.1 μg/well, respectively. The APC signal was measured using an ARVO multilabel counter. (Wallac Berthold Japan). The percent inhibition of activity was calculated relative to blank control wells. The concentration of test compound that inhibits 50% of activity (IC50) was interpolated using nonlinear regression (Levernberg-Marquardt) and the equation, y=Vmax (1−x/(K+x))+Y2, where “K” was equal to the IC50. The IC50 values were converted to pIC50 values, i.e., −log IC50 in Molar concentration.

T1 sequence (Q02763 762-1104): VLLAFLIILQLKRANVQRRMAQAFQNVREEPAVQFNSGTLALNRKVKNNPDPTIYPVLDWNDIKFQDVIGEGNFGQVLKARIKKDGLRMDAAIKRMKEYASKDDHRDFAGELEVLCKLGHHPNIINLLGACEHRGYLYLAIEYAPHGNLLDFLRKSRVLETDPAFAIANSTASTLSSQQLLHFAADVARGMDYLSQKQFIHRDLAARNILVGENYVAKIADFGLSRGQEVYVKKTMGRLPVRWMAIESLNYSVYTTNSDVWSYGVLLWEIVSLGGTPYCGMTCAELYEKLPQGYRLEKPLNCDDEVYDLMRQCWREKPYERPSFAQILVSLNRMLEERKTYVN

TIE2-E	IC50 [µM]	Compound
−		COC(=O)Nc1nc2cc(Oc3ccc(NC(=O)Nc4ccc(F)cc4)cc3)ccc2[nH]1 [Example 63, Methyl N-(5-(4-((4-fluorophenyl)aminocarbonylamino)phenoxy)-1H-benzimidazol-2-yl)carbamate]
	1 to 10	COC(=O)Nc1nc2cc(Oc3ccc(NC(=O)Nc4ccc(OC)cc4)cc3)ccc2[nH]1 [Example 62, Methyl N-(5-(4-((4-methoxyphenyl)aminocarbonylamino)phenoxy)-1H-benzimidazol-2-yl)carbamate]
	< 0.1	Nc1nc2ccc(Oc3ccc(NC(=O)Nc4cc(C(F)(F)F)ccc4F)nc3)cc2n1Cc1ccccc1 [Example 113, 6-(6-((2-Fluoro-5-(trifluoromethyl)phenyl)aminocarbonylamino)-3-pyridyloxy)-1-benzyl-1H-benzimidazol-2-ylamine]

target: T2, GST-VEGFR2 (Homo sapiens, UniProt P35968); assay: VEGF-R2 enzyme assay (VEGF-E), LANCE method; type: biochemical; conditions: 75 μM ATP
T2 construct: GST-VEGFR2, baculovirus expressed recombinant constructs of the intracellular domains of human TIE2 tagged by GST; made in house
Protocol: VEGF-R2 Enzyme Assay (VEGF-E)
The VEGF enzyme assay used the LANCE method (Wallac) and GST-VEGFR2, baculovirus expressed recombinant constructs of the intracellular domains of human […] tagged by GST. […] The reaction was stopped by the addition of EDTA (final concentration 50 mM). Streptavidin linked-APC (allophycocyanin, Molecular Probe) and Europium-labeled anti-phosphorylated tyrosine antibody (Wallac) were then added at the final concentration of 15 nM and 1 nM, respectively. The APC signal was measured using an ARVO multilabel counter (Wallac Berthold, Japan). The percent inhibition of activity was calculated relative to blank control wells. The concentration of test compound that inhibits 50% of activity (IC50) was interpolated using nonlinear regression (Levernberg-Marquardt) and the equation, y=Vmax (1−x/(K+x))+Y2, where “K” was equal to the IC50. The IC50 values were converted to pIC50 values, i.e., −log IC50 in Molar concentration.

T2 sequence (P35968 786-1356 limits assumed): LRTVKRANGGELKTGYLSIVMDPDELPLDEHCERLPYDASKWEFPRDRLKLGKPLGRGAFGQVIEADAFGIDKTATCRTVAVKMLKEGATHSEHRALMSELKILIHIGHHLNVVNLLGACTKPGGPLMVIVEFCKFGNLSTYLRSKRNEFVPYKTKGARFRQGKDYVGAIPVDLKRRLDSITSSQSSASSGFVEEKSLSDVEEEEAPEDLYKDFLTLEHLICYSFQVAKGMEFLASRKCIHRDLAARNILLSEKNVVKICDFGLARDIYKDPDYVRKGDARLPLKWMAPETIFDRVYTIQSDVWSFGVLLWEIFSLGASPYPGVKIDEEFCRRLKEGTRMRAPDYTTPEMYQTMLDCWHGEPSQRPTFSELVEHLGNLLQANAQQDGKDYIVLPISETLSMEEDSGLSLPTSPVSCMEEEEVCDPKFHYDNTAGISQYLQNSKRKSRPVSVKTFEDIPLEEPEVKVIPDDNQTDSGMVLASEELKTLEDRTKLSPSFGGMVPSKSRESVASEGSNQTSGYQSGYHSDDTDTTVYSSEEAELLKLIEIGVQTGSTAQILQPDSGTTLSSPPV

Compound	IC50 [µM]
COC(=O)Nc1nc2cc(Oc3cccc(NC(=O)Nc4ccccc4C(F)(F)F)c3)ccc2[nH]1 [Example 118, Methyl N-(5-(3-((2-(trifluoromethyl)phenyl)aminocarbonylamino)phenoxy)-1H-benzimidazol-2-yl)carbamate]	0.1 to 1
COC(=O)Nc1nc2cc(Oc3cccc(NC(=O)Nc4cc(Cl)ccc4Cl)c3)ccc2[nH]1 [Example 121, Methyl N-(5-(3-((2,5-dichlorophenyl)aminocarbonylamino)phenoxy)-1H-benzimidazol-2-yl)carbamate]	0.1 to 1
COC(=O)Nc1nc2cc(Oc3cccc(NC(=O)Nc4ccc(Cl)cc4)c3)ccc2[nH]1 [Example 61, Methyl N-(5-(3-((4-chlorophenyl)aminocarbonylamino)phenoxy)-1H-benzimidazol-2-yl)carbamate]	< 0.1
COC(=O)Nc1nc2cc(Oc3cccc(NC(=O)Nc4cccc(I)c4)c3)ccc2[nH]1 [Example 120, Methyl N-(5-(3-((3-iodophenyl)aminocarbonylamino)phenoxy)-1H-benzimidazol-2-yl)carbamate]	< 0.1
COC(=O)Nc1nc2cc(Oc3cccc(NC(=O)Nc4ccccc4Oc4ccccc4)c3)ccc2[nH]1 [Example 124, Methyl N-(5-(3-((2-phenoxyphenyl)aminocarbonylamino)phenoxy)-1H-benzimidazol-2-yl)carbamate]	< 0.1
COC(=O)Nc1nc2cc(Oc3cccc(NC(=O)Nc4cccc(Br)c4)c3)ccc2[nH]1 [Example 59, Methyl N-(5-(3-((3-bromophenyl)aminocarbonylamino)phenoxy)-1H-benzimidazol-2-yl)carbamate]	< 0.1
COC(=O)Nc1nc2cc(Oc3cccc(NC(=O)Nc4ccc(Cl)c(C(F)(F)F)c4)c3)ccc2[nH]1 [Example 119, Methyl N-(5-(3-((4chloro-3-(trifluoromethyl)phenyl)aminocarbonylamino)phenoxy)-1H-benzimidazol-2-yl)carbamate]	< 0.1
COCCOCC(=O)Nc1nc2cc(Oc3ccc(NC(=O)Nc4nnc(N5CCOCC5)[nH]4)cc3)ccc2[nH]1 [Example 163, N-(5-(4-((5-Morpholino-1,3,4-triazol-2-yl)aminocarbonylamino)phenoxy)-1H-benzimidazol-2-yl)(2-(methoxy)ethoxy)acetamide]	1 to 10
COC(=O)Nc1nc2cc(Oc3cccc(NC(=O)Nc4ccc(SC(F)(F)F)cc4)c3)ccc2[nH]1 [Example 117, Methyl N-(5-(3-((4-(trifluoromethylthio)phenyl)aminocarbonylamino)phenoxy)-1H-benzimidazol-2-yl)carbamate]	< 0.1
COC(=O)Nc1nc2cc(Oc3cccc(NC(=O)Nc4cccc(SC(F)(F)F)c4)c3)ccc2[nH]1 [Example 58]	< 0.1
O=C(Nc1ccc(Cl)cc1)Nc1nc2cc(Oc3ccc(NC(=O)Nc4cc(C(F)(F)F)ccc4F)cc3)ccc2[nH]1 [Example 134, 1-(5-(4-((2-Fluoro-5-(trifluoromethyl)phenyl)aminocarbonylamino)phenoxy)-1H-benzimidazol-2-yl)-3-(4-chlorophenyl)urea]	< 0.1
COC(=O)Nc1nc2cc(Oc3ccc(NC(=O)Nc4cc(C(C)(C)C)on4)cc3)ccc2[nH]1 [Example 128, Methyl N-(5-(4-((5-tert-butylisoxazole-3-yl)aminocarbonylamino)phenoxy)-1H-benzimidazol-2-yl)carbamate]	< 0.1
CCCCNC(=O)Nc1nc2ccc(Oc3ccc(NC(=O)Nc4ccc(Cl)c(C(F)(F)F)c4)cc3)cc2s1 [Example 136, 1-(6-(4-((4-Chloro-3-(trifluoromethyl)phenyl)aminocarbonylamino)phenoxy)benzthiazol-2-yl)-3-(butyl)urea]	< 0.1
O=C(Nc1ccc(Oc2ccc3[nH]c(NC(=O)Nc4cc(C(F)(F)F)ccc4F)nc3c2)cc1)Nc1cc(C(F)(F)F)ccc1F [Example 133, 1-(5-(4-((2-Fluoro-5-(trifluoromethyl)phenyl)aminocarbonylamino)phenoxy)-1H-benzimidazol-2-yl)-3-(2-fluoro-5-(trifluoromethyl)phenyl)urea]	< 0.1
COC(=O)Nc1nc2cc(Oc3ccc(NC(=O)Nc4cccc(Oc5ccccc5)c4)cc3)ccc2[nH]1 [Example 123, Methyl N-(5-(4-((3-phenoxyphenyl)aminocarbonylamino)phenoxy)-1H-benzimidazol-2-yl)carbamate]	0.1 to 1

More lines, now with the values ahead:

IC50 [µM]	Compound
< 0.1	COC(=O)Nc1nc2cc(Oc3cccc(NC(=O)Nc4ccccc4OC(F)(F)F)c3)ccc2[nH]1 [Example 116, Methyl N-(5-(3-((2-(trifluoromethoxy)phenyl)aminocarbonylamino)phenoxy)-1H-benzimidazol-2-yl)carbamate]
< 0.1	COC(=O)Nc1nc2cc(Sc3ccc(NC(=O)Nc4cc(C(C)(C)C)on4)cc3)ccc2[nH]1 [Example 130, Methyl N-(5-(4-((5-tert-butylisoxazole-3-yl)aminocarbonylamino)phenylthio)-1H-benzimidazol-2-yl)carbamate]
< 0.1	COC(=O)Nc1nc2cc(Oc3ccc(NC(=O)Nc4ccc5c(c4)CCC5)cc3)ccc2[nH]1 [Example 127, Methyl N-(5-(4-((5-indanyl)aminocarbonylamino)phenoxy)-1H-benzimidazol-2-yl)carbamate]
< 0.1	COC(=O)Nc1nc2cc(Oc3cccc(NC(=O)Nc4ccc(Oc5ccccc5)cc4)c3)ccc2[nH]1 [Example 125, Methyl N-(5-(3-((4-phenoxyphenyl)aminocarbonylamino)phenoxy)-1H-benzimidazol-2-yl)carbamate]
< 0.1	COC(=O)Nc1nc2cc(Oc3cccc(NC(=O)Nc4cccc(Oc5ccccc5)c4)c3)ccc2[nH]1 [Example 60, Methyl N-(5-(3-((3-(phenoxy)phenyl)aminocarbonylamino)phenoxy)-1H-benzimidazol-2-yl)carbamate]
< 0.1	COC(=O)Nc1nc2cc(Oc3ccc(NC(=O)Nc4ccc(F)cc4)cc3)ccc2[nH]1 [Example 63, Methyl N-(5-(4-((4-fluorophenyl)aminocarbonylamino)phenoxy)-1H-benzimidazol-2-yl)carbamate]
< 0.1	COC(=O)Nc1nc2ccc(C(=O)c3ccc(NC(=O)Nc4cc(C(F)(F)F)ccc4F)cc3)cc2[nH]1 [Example 78, Methyl N-(5-(4-((2-fluoro-5-(trifluoromethyl)phenyl)aminocarbonylamino)phenylcarbonyl)-1H-benzimidazol-2-yl)carbamate]
< 0.1	CCCCNC(=O)Nc1nc2ccc(Oc3ccc(NC(=O)Nc4cc(C(F)(F)F)ccc4F)cc3)cc2s1 [Example 137, 1-(6-(4-((2-Fluoro-5-(trifluoromethyl)phenyl)aminocarbonylamino)phenoxy)benzthiazol-2-yl)-3-(butyl)urea]
< 0.1	COC(=O)Nc1nc2cc(Oc3cccc(NC(=O)Nc4cc(C(C)(C)C)on4)c3)ccc2[nH]1 [Example 129, Methyl N-(5-(3-((5-tert-butylisoxazole-3-yl)aminocarbonylamino)phenoxy)-1H-benzimidazol-2-yl)carbamate]
< 0.1	COC(=O)Nc1nc2cc(Oc3ccc(NC(=O)Nc4ccc(OC)cc4)cc3)ccc2[nH]1 [Example 62, Methyl N-(5-(4-((4-methoxyphenyl)aminocarbonylamino)phenoxy)-1H-benzimidazol-2-yl)carbamate]
